Counter-ions that a name gives are not always drawn. Like-named read-outs stand apart in the source and are kept apart here.
Tests used:
human factor Xa = target: T1, human factor Xa (Homo sapiens, UniProt P00742); test: Inhibition of Factor Xa hydrolysis of chromogenic substrate S2222 (Ki); assay type: biochemical; details: purified human factor Xa, 0.10 M sodium phosphate buffer
T1 construct: 0.2-0.5 nM human thrombin or human factor Xa; purchased Enzyme Research Laboratories, South Bend, Ind
Description: (§1) The effectiveness of compounds of the present invention as inhibitors of blood coagulation proteases was determined using purified human proteases and synthetic substrates following procedures similar to those described in Kettner et al. (1990).
(§2) For these assays, the rate of enzymatic (thrombin, Factor Xa, and Factor VIIa) hydrolysis of chromogenic substrates (S2238 (H-D-Phe-Pip-Arg-pNA), S2222, and S2288, respectively; Kabi Pharmacia, Franklin, Ohio) was measured both in the absence and presence of compounds of the present invention. […] A decrease in the rate of absorbance change at 405 nm in the presence of inhibitor is indicative of enzyme inhibition. The results of this assay are expressed as inhibitory constant, Ki.
(§3) Thrombin and Xa determinations were made in 0.10 M sodium phosphate buffer, pH 7.5, containing 0.20 M NaCl, and 0.5% PEG 8000. VIIa determinations were made in 0.05 M tris buffer, pH 7.6, containing 0.10 M NaCl, 4 mM CaCl2, and 0.1% bovine serum albumin.
(§4) Reactions were allowed to go for 30 minutes and the velocities (rate of absorbance change vs time) were measured in the time frame of 25-30 minutes. The following relationship was used to calculate Ki values. [formula] where: vo is the velocity of the control in the absence of inhibitor;
(§5) vs is the velocity in the presence of inhibitor;
(§6) I is the concentration of inhibitor;
(§7) Ki is the dissociation constant of the enzyme: inhibitor complex;
(§8) S is the concentration of substrate;
(§9) Km is the Michaelis constant.

Thrombin time = Thrombin time (IC50), Table 80
human thrombin = human thrombin (Homo sapiens, UniProt P00734); test: Inhibition of thrombin hydrolysis of chromogenic substrate S2238 (Ki); assay type: biochemical; design: 0.2-0.5 nM human thrombin or human factor Xa; purchased Enzyme Research Laboratories, South Bend, Ind; details: purified human thrombin, 0.10 M sodium phosphate buffer, pH 7.5, read-out: Ki values for inhibition of Serine Proteases: Trombin
Description: as §1, §2, §3, §4, §5, §6, §7, §8, §9

human factor VIIa = target: T2, human factor VIIa (Homo sapiens, UniProt P08709); test: Inhibition of Factor VIIa hydrolysis of chromogenic substrate S2288 (Ki); assay type: biochemical; details: purified human factor VIIa, 0.05 M tris buffer; for Ki: pH 7.6, read-out: Ki values for inhibition of Serine Proteases: Factor VIIa; for Ki values for inhibition of Serine Proteases: Factor VIIa: pH 7.6
T2 construct: 50 nM human factor VIIa (BiosPacific, Emeryville, Calif.); purchased BiosPacific, Emeryville, Calif
T2 sequence (P08709 213-466 limits assumed): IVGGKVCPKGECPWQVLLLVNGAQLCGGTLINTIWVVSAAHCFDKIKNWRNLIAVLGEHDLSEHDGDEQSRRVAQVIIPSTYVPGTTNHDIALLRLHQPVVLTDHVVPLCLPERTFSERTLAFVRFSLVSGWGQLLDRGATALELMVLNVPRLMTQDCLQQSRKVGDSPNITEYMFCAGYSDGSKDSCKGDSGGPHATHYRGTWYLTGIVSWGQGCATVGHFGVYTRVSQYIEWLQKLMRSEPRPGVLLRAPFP
T2 sequence (P08709 61-212 partner limits assumed): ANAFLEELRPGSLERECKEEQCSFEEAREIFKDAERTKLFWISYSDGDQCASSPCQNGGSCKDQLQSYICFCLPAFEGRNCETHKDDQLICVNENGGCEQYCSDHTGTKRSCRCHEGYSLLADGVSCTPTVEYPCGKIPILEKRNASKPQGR
Description: as §1, §2, §3, §4, §5, §6, §7, §8, §9

[1] = pH 7.5, read-out: Ki values for inhibition of Serine Proteases: Factor Xa

T1 sequence (P00742 235-488 limits assumed): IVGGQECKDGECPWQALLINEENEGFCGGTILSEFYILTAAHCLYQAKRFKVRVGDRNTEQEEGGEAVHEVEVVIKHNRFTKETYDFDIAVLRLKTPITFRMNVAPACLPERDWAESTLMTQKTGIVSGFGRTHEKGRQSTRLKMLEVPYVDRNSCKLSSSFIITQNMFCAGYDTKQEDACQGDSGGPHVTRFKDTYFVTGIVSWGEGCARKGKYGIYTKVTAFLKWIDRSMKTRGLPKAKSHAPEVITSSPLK
T1 sequence (P00742 41-179 partner limits assumed): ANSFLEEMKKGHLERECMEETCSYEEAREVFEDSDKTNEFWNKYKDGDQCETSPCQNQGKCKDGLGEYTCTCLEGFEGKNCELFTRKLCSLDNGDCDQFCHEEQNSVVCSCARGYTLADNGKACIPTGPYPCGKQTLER

| Ki (human factor Xa; [1]) [nM] | IC50 (Thrombin time) [nM] | Ki (human thrombin) [nM] | Ki (human factor VIIa) [nM] | Compound | other results |
| --- | --- | --- | --- | --- | --- |
| < 500 | < 500 | < 500 | < 50000 | 2-(Thiophenyl)-Benzoyl-Sar-boroOrn(CH=NH)-C10H16 HCl [Example 63.4.1] | – |
| < 500 | < 500 | < 500 | < 50000 | Cc1cccc(CCN(CC(=O)NC(CCCCN)B(O)O)C(=O)CCc2ccccc2)c1 (centres unmarked) [Example 52.1.2, Hydrocinnamoyl-[N-(3-methylphenethyl)-Gly]-boroLys--OH hydrochloride salt] | – |
| – | < 500 | < 500 | < 500 | CC(C)(CN(CC(=O)NC(CCCCN)B(O)O)C(=O)CCc1ccccc1)c1ccccc1 (centres unmarked) [Example 53.1.1, Hydrocinnamoyl-[N-(2,2-dimethyl)-phenethyl-Gly]-boroLys--OH hydrochloride salt] | Ki (human factor Xa; pH 7.5, hydrochloride salt, read-out: Ki values for inhibition of Serine Proteases: Factor Xa): < 500 nM |
| – | < 50000 | < 500 | – | CN(CC(=O)NC(CCCCN)B(O)O)Cc1ccccc1Cn1cccc1 (centres unmarked) [Example 65.1.3, N-{N-methyl-N-[2-(pyrrol-1-ylmethyl)-Benzyl]glycyl}-1-amido-5-aminopentaneboronic acid, hydrochloride salt] | – |
| – | < 500 | < 500 | – | NCCCCC(NC(=O)CN(C(=O)Cc1cccs1)C1CC1)B(O)O (centres unmarked) [Example 78.1.3, Thiophenacetyl-[N-(Cyclopropyl)-Gly]-boroLys--OH HCl] | – |
| – | < 500 | < 500 | – | CC1(C)C2CC3OB(C(CCCCN)NC(=O)CN(C(=O)COc4ccccc4)C4CC4)OC3(C)C1C2 (centres unmarked) [Example 79.1.2, Phenoxyacetyl-[N-(Cyclopropyl)-Gly]-boroLys-C10H16 HCl] | – |
| – | < 500 | < 500 | – | CC1(C)C2CC3OB(C(CCCCN)NC(=O)CN(C(=O)Cc4cccs4)C4CC4)OC3(C)C1C2 (centres unmarked) [Example 79.1.3, Thiophenacetyl-[N-(Cyclopropyl)-Gly]-boroLys-C10H16 HCl] | – |
| < 500 | – | < 500 | < 500 | (2-(2-Cyano)-Thiophenyl)-Benzoyl-Sar-boroOrn(CH=NH)-C10H16 HCl [Example 62.4.1] | – |
| – | – | < 50000 | – | Hydrocinnamoyl-Sar-Lys(Z)--C(=O)--O-(CH2)2--NH(Z) [Example 61.1.2] | Ki values for inhibition of Serine Proteases: Factor Xa (human factor Xa; pH 7.5): Inactive; Ki values for inhibition of Serine Proteases: Factor VIIa (human factor VIIa): Inactive |
| < 50000 | – | < 50000 | – | Hydrocinnamoyl-Sar-Lys--C(=O)--O--(CH2)2--NH2 2 HCl [Example 61.1.3] | Ki values for inhibition of Serine Proteases: Factor VIIa (human factor VIIa): Inactive |
| < 500 | – | < 500 | < 500 | Hydrocinnamoyl-[N-(2,2-(Dimethyl)-Phenethyl)-Gly]-boroOrn(CH=NH)--OH HCl [Example 57.1.1] | – |
| < 500 | – | < 500 | < 500 | Hydrocinnamoyl-[N-(2-(Cyclopropyl)-Phenethyl)-Gly]-boroOrn(CH=NH)--OH HCl [Example 57.1.2] | – |
| – | < 500 | < 500 | – | Hydrocinnamoyl-[N-(N(CH3)2)-Gly]-boroOrn(CH=NH)-C10H16 HCl [Example 50.1.2] | – |
| – | < 50000 | < 500 | – | Hydrocinnamoyl-[N-(N-(Methyl)-Phenyl)-Gly]-boroLys--OH HCl [Example 53.2.1] | – |
| < 500 | – | < 500 | < 50000 | [3-(Trifluoromethyl)-Benzyl]-Benzoyl-Sar-boroLys-C10H16 HCl [Example 64.2.2] | – |

More lines, now with the values behind:

| Compound | Ki (human factor Xa; [1]) [nM] | IC50 (Thrombin time) [nM] | Ki (human thrombin) [nM] | Ki (human factor VIIa) [nM] | other results |
| --- | --- | --- | --- | --- | --- |
| 2-Benzyl-(N-Benzyl)-Sar-boroLys--C10 H16 HCl [Example 64.1.1] | < 50000 | – | < 500 | < 50000 | IC50 Thrombin time (Thrombin time): Inactive |
| 2-Thiophenyl-Benzoyl-Sar-boroLys(CH=NH)-C10H16 [Example 63.4.2] | < 500 | < 50000 | < 500 | < 50000 | – |
| N=CNCCCC(NC(=O)CN(CCc1ccccc1)C(=O)CCc1ccccc1)B(O)O (centres unmarked) [Example 49.1.3, Hydrocinnamoyl-[N-(Phenethyl)-Gly]-boroOrn(CH=NH)--OH HCl] | < 500 | < 500 | < 500 | – | – |
| CN=C(N)NCCCC(NC(=O)CN(CCc1ccccc1)C(=O)CCc1ccccc1)B1OC2CC3CC(C3(C)C)C2(C)O1 (centres unmarked) [Example 49.2.1, Hydrocinnamoyl-[N-(Phenethyl)-Gly]-boroArg(CH3)-C10H16 HCl] | < 500 | < 50000 | < 500 | – | – |
| CN(c1ccccc1)N(CC(=O)NC(CCCCN)B1OC2CC3CC(C3(C)C)C2(C)O1)C(=O)CCc1ccccc1 (centres unmarked) [Example 54.2.1, Hydrocinnamoyl-[N-(N-(Methyl)-Phenyl)-Gly]-boroLys-C10H16 HCl] | – | < 50000 | < 500 | – | – |
| NCCCCC(NC(=O)CN(C(=O)CCc1ccccc1)C1CC1)B(O)O (centres unmarked) [Example 59.4.2, Hydrocinnamoyl-[N-(Cyclopropyl)-Gly]-boroLys--OH HCl] | < 50000 | < 500 | < 500 | – | – |
| CN(CC(=O)NC(CCCCN)B1OC2CC3CC(C3(C)C)C2(C)O1)Cc1ccccc1Cn1cccc1 (centres unmarked) [Example 64.1.3, Pinanediol N-{N-methyl-N-[2-(pyrrol-1-ylmethyl)-Benzyl]glycyl}-1-amido-5-aminopentaneboronate, hydrochloride salt] | – | < 50000 | < 500 | – | – |
| Cc1cccc(CCN(CC(=O)NC(CCCCN)B2OC3CC4CC(C4(C)C)C3(C)O2)C(=O)CCC(=O)O)c1 (centres unmarked) [Example 73.1.2, Succinyl-[N-(3-(Methyl)-Phenethyl)-Gly]-boroLys-C10H16 HCl] | < 500 | – | < 500 | < 50000 | – |
| NCCCCC(NC(=O)CN(C(=O)COc1ccccc1)C1CC1)B(O)O (centres unmarked) [Example 78.1.2, Phenoxyacetyl-[N-(Cyclopropyl)-Gly]-boroLys--OH HCl] | – | < 500 | < 500 | – | – |
| (2-(2-Cyano)-Thiophenyl)-Benzoyl-Sar-boroLys(CH=NH)-C10H16 HCl [Example 62.4.2] | < 500 | – | < 500 | < 50000 | – |
| Hydrocinnamoyl-Sar-Lys--C(=O)--OCH3 HCl [Example 61.2.1] | < 50000 | – | < 50000 | < 50000 | – |
| Hydrocinnamoyl-Sar-Lys[C(O)CO2 H] [Example 61.1.1] | < 50000 | – | < 500 | < 50000 | – |
| Hydrocinnamoyl-[N-(2,2-(Dimethyl)-Phernethyl)-Gly]-boroOrn(CH=NH)-C10H16 HCl [Example 58.1.1] | < 500 | – | < 500 | < 500 | – |
| Hydrocinnamoyl-[N-(Cyclopropyl)-Gly]-boroOrn(CH=NH)--OH HCl [Example 57.4.2] | < 50000 | < 500 | < 500 | – | – |
| Hydrocinnamoyl-[N-(N(CH3)2)-Gly]-boroLys--OH HCl [Example 72.1.3] | – | < 500 | < 500 | – | – |
| Hydrocinnamoyl-[N-(N-(Methyl)-Benzyl)-Gly]-boroLys--OH HCl [Example 53.2.2] | < 500 | – | < 500 | < 500 | – |
| Hydrocinnamoyl-[N-(N-(Methyl)-Benzyl)-Gly]-boroLys-C10H16 HCl [Example 54.2.2] | – | < 50000 | < 500 | – | – |
| Hydrocinnamoyl-[N-(Phenethyl)-Gly]-boroOrn(CH=NH)-C10H16 HCl [Example 49.1.2] | – | < 500 | < 500 | – | – |
| Pinanediol N-{N-methyl-N-[2-(Thiophenyl)-Benzoyl]Sar}-1-amido-5-thiocyanatobutane boronate [Example 63.5.1] | < 50000 | – | < 50000 | – | Ki values for inhibition of Serine Proteases: Factor VIIa (human factor VIIa): inactive |

— patent publication US6060462A, “Electrophilic peptide analogs as inhibitors of trypsin-like enzymes” (DuPont Pharmaceuticals Company, priority 1997, dated 2000)
